Tested on: single-round infectious reporter virus with HIV-1 LAI envelope
Assay: Single-round infectious HIV-1 LAI luciferase reporter virus infection of MT2 cells
Type: cell-based
Conditions: Human immunodeficiency virus 1, MT2, 72 h, read-out: EC50 Group from Table 1
Excerpt: • Virus production—Human embryonic Kidney cell line, 293T (HEK 293T), was propagated in Dulbecco's Modified Eagle Medium (Invitrogen, Carlsbad, Calif.) containing 10% fetal Bovine serum (FBS, Sigma, St. Louis, Mo.). The human T-cell leukemia cell MT2 (AIDS Research and Reference Reagent Program, Cat. 237) was propagated in RPMI 1640 (Invitrogen, Carlsbad, Calif.) containing 10% fetal bovine serum (FBS, Hyclone, Logan, Utah) • Virus infection—Single-round infectious reporter virus was produced by co-transfecting HEK 293T cells with plasmide expressing the HIV-1 LAI envelope along with a plasmid containing an HIV-1 LAI proviral cDNA with the envelope gene replaced by a firefly luciferase reporter gene (Chen et al, Ref 41). Transfections were performed using lipofectAMINE PLUS reagent as described by the manufacturer (Invitrogen, Carlsbad, Calif.).
• 1. MT2 cells were plated in black, 384 well plates at a cell density of 5×10^3 cells per well in 25 μl RPMI 1640 containing 10% FBS. • 2. Compound (diluted in dimethylsulfoxide and growth medium) was added to cells at 12.5 μl/well, so that the final assay concentration would be ≦50 nM. • 3. 12.5 μl of single-round infectious reporter virus in Dulbecco's Modified Eagle Medium was added to the plated cells and compound at an approximate multiplicity of infection (MOI) of 0.01, resulting in a final volume of 50 μl per well. • 4. Virus-infected cells were incubated at 37 degrees Celsius, in a CO2 incubator, and harvested 72 h after infection. • 5. Viral infection was monitored by measuring luciferase expression in the infected cells using a luciferase reporter gene assay kit (Steady-Glo, Promega, Madison, Wis.) as described by the manufacturer. Luciferase activity was then quantified by measuring luminescence using an EnVision Multilabel Plate Readers (PerkinElmer, Waltham, Mass.). • 6. The percent inhibition for each compound was calculated by quantifying the level of luciferase expression in cells infected in the presence of each compound as a percentage of that observed for cells infected in the absence of compound and subtracting such a determined value from 100. • 7. An EC50 provides a method for comparing the antiviral potency of the compounds of this disclosure. The effective concentration for fifty percent inhibition (EC50) was calculated with the Microsoft Excel Xlfit curve fitting software. For each compound, curves were generated from percent inhibition calculated at 10 different concentrations by using a four paramenter logistic model (model 205). Table 1 is the key for the data in Table 2.

How did the EC50 turn out when `O=C(C(=O)N1CCN(C(=O)C2C[C@H]3C[C@@H]2CCC3O)CC1)c1c[nH]c2c(-n3ccnn3)ncc(F)c12` (stereo partly shown) [Compound 2010] was run?
Its EC50 is under 500 nM.

With `COc1cnc(-n2ccnn2)c2[nH]cc(C(=O)C(=O)N3CCN(C(=O)C4CCCCC4)CC3)c12` [Compound 1002, 1-(4-(cyclohexanecarbonyl)piperazin-1-yl)-2-(4-methoxy-7-(1H-1,2,3-triazol-1-yl)-1H-pyrrolo[2,3-c]pyridin-3-yl)ethane-1,2-dione] as the compound, how does the EC50 read?
The EC50 was under 500 nM.

With `O=C(C(=O)N1CCN(C(=O)[C@@H](O)c2ccccc2)CC1)c1c[nH]c2c(-n3ccnn3)ncc(F)c12` [Compound 2023] as the compound, how does the EC50 read?
Its EC50 is under 500 nM.

How did the EC50 turn out when `O=C(C(=O)N1CCN(C(=O)C2CCCO2)CC1)c1c[nH]c2c(-n3ccnn3)ncc(F)c12` (stereo not shown) [Compound 2002] was run?
Its EC50 is under 500 nM.

Source: patent US8912195B2, “Alkyl amides as HIV attachment inhibitors” (priority 2010, dated 2014)
